The record followed here is BindingDB's records for doi:10.1016/s0968-0896(99)00215-1 (Parke-Davis Pharmaceutical Research, 1999).

One test concerns the target T1, Dimer of Gag-Pol polyprotein [489-587] (Human immunodeficiency virus 1, UniProt P12497).
T1 construct: 489-587
As to the kind of experiment: Protease Inhibition Assay.
Settings: not given
As to the method:
For determination of IC50 values, HIV-1 protease was added to assay buffer containing inhibitor and the substrate (H-His-Lys-Ala-Arg-Val-Leu- (p-NO2) Phe-Glu-Ala-norleucine-Ser-NH2). The Leu- (p-NO2) Phe bond of the substrate was cleaved by the enzyme, and the substrate and products were separated by reversed-phase HPLC. Absorbance was measured at 220 nm, peak areas were determined, and percentage conversion to product was calculated.
In general, IC50 refers to the concentration at which inhibition is half-maximal. The molecule `CCCCC1(CCc2ccc(O)cc2)CC(=O)C(Sc2cc(C)c(OCCO)cc2C(C)(C)C)C(=O)O1` (centres undefined) [6-butyl-3-{[2-tert-butyl-4-(2-hydroxyethoxy)-5-methylphenyl]sulfanyl}-4-hydroxy-6-[2-(4-hydroxyphenyl)ethyl]-5,6-dihydro-2H-pyran-2-one] had a 50% inhibitory concentration (IC50) of 6.4 nM. As usually defined, the Ki is the equilibrium dissociation constant of an inhibitor or competing ligand from its target. A high value points to weaker binding. `Cc1cc(SC2C(=O)C[C@](CCc3ccccc3)(C(C)C)OC2=O)c(C(C)(C)C)cc1CO` (stereo partly drawn) [(6R)-3-{[2-tert-butyl-4-(hydroxymethyl)-5-methylphenyl]sulfanyl}-4-hydroxy-6-(2-phenylethyl)-6-(propan-2-yl)-5,6-dihydro-2H-pyran-2-one] came in with a Ki of 160 nM. Molecule `Cc1ccc(C(C)(C)C)c(SC2C(=O)CC(CCc3ccccc3)(C(C)C)OC2=O)c1` (centres undefined) [3-[(2-tert-butyl-5-methylphenyl)sulfanyl]-4-hydroxy-6-(2-phenylethyl)-6-(propan-2-yl)-5,6-dihydro-2H-pyran-2-one] gave an IC50 of 1.1 nM. On the same count and under the same terms, as for `Cc1cc(SC2C(=O)CC(CCc3ccccc3)(C(C)C)OC2=O)c(C(C)(C)C)cc1CO` (centres undefined) [3-{[2-tert-butyl-4-(hydroxymethyl)-5-methylphenyl]sulfanyl}-4-hydroxy-6-(2-phenylethyl)-6-(propan-2-yl)-5,6-dihydro-2H-pyran-2-one], the figure is 2.2 nM; as for `Cc1cc(SC2C(=O)CC(CCc3ccccc3)(c3ccccc3)OC2=O)c(C(C)(C)C)cc1CO` (centres undefined) [PD 178390 Analog 38], 6.5 nM. `Cc1cc(SC2C(=O)C[C@@](CCc3ccc(N)cc3)(C(C)C)OC2=O)c(C(C)(C)C)cc1CO` (stereo partly drawn) [(6S)-6-[2-(4-aminophenyl)ethyl]-3-{[2-tert-butyl-4-(hydroxymethyl)-5-methylphenyl]sulfanyl}-4-hydroxy-6-(propan-2-yl)-5,6-dihydro-2H-pyran-2-one] registered a Ki of 0.11 nM. `Cc1cc(SC2C(=O)CC(CCc3ccccc3)(C(C)C)OC2=O)c(C(C)(C)C)cc1O` (centres undefined) had a Ki of 1.1 nM. `Cc1cc(SC2C(=O)CC(CCc3ccc(O)cc3)(C(C)C)OC2=O)c(C(C)(C)C)cc1OCCO` (centres undefined) [(3-(2-tert-Butyl-4-(2-hydroxy-ethoxy)-5-methyl-phenylsulfanyl)-4-hydroxy-6-[2-(4-hydroxy-phenyl)-ethyl]-6-isopropyl-5,6-dihydro-pyran-2-one] came in with an IC50 of 2.8 nM. `COCOCCOc1cc(C(C)(C)C)c(SC2C(=O)CC(C)(CCc3ccc(O)cc3)OC2=O)cc1C` (centres undefined) [3-({2-tert-butyl-4-[2-(methoxymethoxy)ethoxy]-5-methylphenyl}sulfanyl)-4-hydroxy-6-[2-(4-hydroxyphenyl)ethyl]-6-methyl-5,6-dihydro-2H-pyran-2-one]: half-maximal inhibition (IC50) was put at 20 nM. In turn, `CCCCCC1(CCc2ccc(O)cc2)CC(=O)C(Sc2cc(C)c(OCCO)cc2C(C)(C)C)C(=O)O1` (centres undefined) [3-{[2-tert-butyl-4-(2-hydroxyethoxy)-5-methylphenyl]sulfanyl}-4-hydroxy-6-[2-(4-hydroxyphenyl)ethyl]-6-pentyl-5,6-dihydro-2H-pyran-2-one] returned an IC50 of 2.9 nM. The same measure, in the same setting: the same measure for `Cc1cc(SC2C(=O)CC(CCc3ccccc3)(C(C)C)OC2=O)c(C(C)(C)C)cc1OCCO` (centres undefined) [3-{[2-tert-butyl-4-(2-hydroxyethoxy)-5-methylphenyl]sulfanyl}-4-hydroxy-6-(2-phenylethyl)-6-(propan-2-yl)-5,6-dihydro-2H-pyran-2-one]: 2.6 nM. For the molecule `Cc1cc(SC2C(=O)C[C@@](CCc3ccccc3)(C(C)C)OC2=O)c(C(C)(C)C)cc1CO` (stereo partly drawn) [(6S)-3-{[2-tert-butyl-4-(hydroxymethyl)-5-methylphenyl]sulfanyl}-4-hydroxy-6-(2-phenylethyl)-6-(propan-2-yl)-5,6-dihydro-2H-pyran-2-one], affinity was put at a Ki of 0.09 nM. For the molecule `Cc1cc(SC2C(=O)CC(CCc3ccc(O)cc3)(C3CC3)OC2=O)c(C(C)(C)C)cc1OCCO` (centres undefined) [(3-(2-tert-Butyl-4-(2-hydroxy-ethoxy)-5-methyl-phenylsulfanyl)-6-cyclopropyl-4-hydroxy-6-[2-(4-hydroxy-phenyl)-ethyl]-5,6-dihydro-pyran-2-one], half-maximal inhibition (IC50) was put at 3.8 nM.

Still in this test, the particulars now being: pH 6.2; 37 °C.
The molecule `CCCCCC1(CCc2ccc(O)cc2)CC(=O)C(Sc2cc(C)c(CO)cc2C(C)(C)C)C(=O)O1` (centres undefined) [3-{[2-tert-butyl-4-(hydroxymethyl)-5-methylphenyl]sulfanyl}-4-hydroxy-6-[2-(4-hydroxyphenyl)ethyl]-6-pentyl-5,6-dihydro-2H-pyran-2-one] returned a half-inhibitory concentration (IC50) of 5.9 nM. In turn, `CCCCC1(CCc2ccc(O)cc2)CC(=O)C(Sc2cc(C)c(CO)cc2C(C)(C)C)C(=O)O1` (centres undefined) [6-butyl-3-{[2-tert-butyl-4-(hydroxymethyl)-5-methylphenyl]sulfanyl}-4-hydroxy-6-[2-(4-hydroxyphenyl)ethyl]-5,6-dihydro-2H-pyran-2-one] returned an IC50 of 4.1 nM. Turning to `CCCC1(CCc2ccc(O)cc2)CC(=O)C(Sc2cc(C)c(CO)cc2C(C)(C)C)C(=O)O1` (centres undefined) [3-{[2-tert-butyl-4-(hydroxymethyl)-5-methylphenyl]sulfanyl}-4-hydroxy-6-[2-(4-hydroxyphenyl)ethyl]-6-propyl-5,6-dihydro-2H-pyran-2-one], half-maximal inhibition (IC50) was put at 2.6 nM. In turn, `Cc1cc(SC2C(=O)CC(CCc3ccc(O)cc3)(C(C)C)OC2=O)c(C(C)(C)C)cc1CO` (centres undefined) [3-{[2-tert-butyl-4-(hydroxymethyl)-5-methylphenyl]sulfanyl}-4-hydroxy-6-[2-(4-hydroxyphenyl)ethyl]-6-(propan-2-yl)-5,6-dihydro-2H-pyran-2-one] displayed an inhibition constant (Ki) of 0.17 nM. On to `Cc1ccc(C(C)(C)C)c(SC2C(=O)CC(CCc3ccc(O)cc3)OC2=O)c1` (centres undefined) [3-[(2-tert-butyl-5-methylphenyl)sulfanyl]-4-hydroxy-6-[2-(4-hydroxyphenyl)ethyl]-5,6-dihydro-2H-pyran-2-one], for which 338 nM corresponded to half-maximal inhibition (IC50). With `CCCC1(CCc2ccc(O)cc2)CC(=O)C(Sc2cc(C)ccc2C(C)(C)C)C(=O)O1` (centres undefined) [3-[(2-tert-butyl-5-methylphenyl)sulfanyl]-4-hydroxy-6-[2-(4-hydroxyphenyl)ethyl]-6-propyl-5,6-dihydro-2H-pyran-2-one], the IC50 was determined as 19 nM. Still for that read-out and setting: the same measure for `Cc1ccc(C(C)(C)C)c(SC2C(=O)CC(CCc3ccc(O)cc3)(C(C)C)OC2=O)c1` (centres undefined) [(3-(2-tert-Butyl-5-methyl-phenylsulfanyl)-4-hydroxy-6-[2-(4-hydroxy-phenyl)-ethyl]-6-isopropyl-5,6-dihydro-pyran-2-one]: 4.6 nM; for `Cc1ccc(C(C)(C)C)c(SC2C(=O)CC(CCc3ccc(O)cc3)(C3CCCC3)OC2=O)c1` (centres undefined) [(3-(2-tert-Butyl-5-methyl-phenylsulfanyl)-4-hydroxy-6-[2-(4-hydroxy-phenyl)-ethyl]-6-cyclopentyl-5,6-dihydro-pyran-2-one]: 7.2 nM; for `Cc1cc(SC2C(=O)CC(CCc3ccc(O)cc3)(C3CCCCC3)OC2=O)c(C(C)(C)C)cc1CO` (centres undefined) [PD 178390 Analog 21]: 2.5 nM.

The molecule `Cc1cc(SC2C(=O)CC(CCc3ccc(O)cc3)(C3CC3)OC2=O)c(C(C)(C)C)cc1CO` (centres undefined) [(3-(2-tert-Butyl-4-hydroxymethyl-5-methyl-phenylsulfanyl)-6-cyclopropyl-4-hydroxy-6-[2-(4-hydroxy-phenyl)-ethyl]-5,6-dihydro-pyran-2-one] showed a half-inhibitory concentration (IC50) of 1 nM. `Cc1ccc(C(C)(C)C)c(SC2C(=O)CC(CCc3ccc(O)cc3)(C3CC3)OC2=O)c1` (centres undefined) [(3-(2-tert-Butyl-5-methyl-phenylsulfanyl)-6-cyclopropyl-4-hydroxy-6-[2-(4-hydroxy-phenyl)-ethyl]-5,6-dihydro-pyran-2-one] came in with a half-inhibitory concentration (IC50) of 8 nM.
